From patent publication US5436252A, “5-aryl-3H-1,2,4-triazol-3-ones and their use in the treatment of neurodegenerative disorders” (Merrell Dow Pharmaceuticals Inc., priority 1990, dated 1995)
Where two headings read alike, the source gives them in different places.

Key:
[1] = Antagonism of Quinolinic Acid Induced Seizures (clonic-tonic seizures after icv quinolinic acid); assay type: in vivo, mice; conditions: for responders at 64 mg/kg / ED50: Mus musculus; for responders at 64 mg/kg: 64 mg/Kg IP, animals protected/tested, quinolinic acid 7.7 μg icv, read-out: Mice Protected 64 mg/Kg IP
[2] = Hippocampal neurodegeneration after carotid artery occlusion (CA1 damage score); assay type: in vivo, Male mongolian gerbils
From the text: Male mongolian gerbils (Tumblebrook Farms) weighing 45 to 60 gms were used for the experiments measuring hippocampal neurodegeneration after carotid artery occlusion. The gerbils were housed in small groups and allowed ad lib access to food and water prior to surgery. Following administration of drug, the gerbils were anesthetized with halothane (3.5%) and prepared for surgery.
An incision was made in the midline region of the neck and both carotid arteries were exposed and isolated from surrounding tissue. In sham operated animals the wounds were then closed and the animals were allowed to recover. In the hypoxic group the isolated carotid arteries were occluded for 5 minutes with 7 mm Mayfield aneurysm clips. Loss of blood flow to the cortex was confirmed by observation with an opthalmoscope of the blanching of the radial arteries in the retina of the ipsilateral eye. After 5 minutes the clips were removed and the gerbils were placed in their home cages and allowed to recover. After 7 days the gerbils were sacrificed by an overdose of chloral hydrate and perfused intracardially with 10 ml of 1% […] followed by 15 ml of 10% buffered formalin. […] Damage to the CA1 region was assessed by 3 observers who were blind to the previous treatment of the gerbil. This damage was assessed according to the scale below. […]

[3] = gerbils; background; cited from earlier work
[4] = mice; background; cited from earlier work
[5] = administration to rodents; background; cited from earlier work
[6] = 0.5 h, IP, 30', read-out: ED50 IP

COc1ccc(-c2nn(C)c(=O)n2C)cc1OC1CCCC1
responders at 64 mg/kg [1]: 60%

Cn1nc(-c2ccccc2Cl)n(C)c1=O [2-ClC6 H4, CH3, CH3]
responders at 64 mg/kg [1]: 60%

Cn1c(-c2ccccc2Cl)n[nH]c1=O [2-ClC6 H4, H, CH3, 5-(2-chlorophenyl)-2,4-dihydro-4-methyl-3H-1,2,4-triazol-3-one]
ED50 [1, 6]: 64.9 mg/kg | responders at 64 mg/kg [1]: 60% | ED50 ([1]; IP, 2 hr, read-out: ED50 IP): > 64 mg/kg

CCn1nc(-c2cccs2)n(C)c1=O [2-Thienyl, C2 H5, CH3, 5-(2-thienyl)-2,4-dihydro-2-ethyl-4-methyl-3H-1,2,4-triazol-3-one]
ED50 ([1]; IP, range, time not given, printed near the Mice Protected column, read-out: ED50 IP): 8 to 64 mg/kg

Cn1c(-c2ccc(Cl)c(Cl)c2)n[nH]c1=O [3,4-Cl2 C6 H3, H, CH3, 5-(3,4-dichlorophenyl)-2,4-dihydro-4-methyl-3H-1,2,4-triazol-3-one]
Mice Protected ([1]; @ 32 mg/Kg IP, (60')): 5/10 | ED50 [1, 6]: < 8 mg/kg | ED50 ([1]; PO, time not given, read-out: ED50 PO): > 16 mg/kg

COc1ccc(-c2n[nH]c(=O)n2C)cc1OC1CCCC1 [3-(cyclo-C5 H9 O)--4-CH3 OC6 H3, H, CH3]
responders at 64 mg/kg [1]: 20%

CCCCOc1cc(-c2nn(C)c(=O)n2C)ccc1OC [3-(n-C4 H9 O)--4-CH3 OC6 H3, CH3, CH3]
responders at 64 mg/kg [1]: 60%

CCCCOc1cc(-c2n[nH]c(=O)n2C)ccc1OC [3-(n-C4 H9 O)--4-CH3 OC6 H3, H, CH3, 5-[3-(n-butoxy)-4-methoxyphenyl]-2,4-dihydro-4-methyl-3H-1,2,4-triazol-3-one]
responders at 64 mg/kg [1]: 70%

CCn1c(-c2ccc(Cl)cc2)nn(C)c1=O [4-ClC6 H4, CH3, C2 H5, 5-(4-Chlorophenyl)-2,4-dihydro-4-ethyl-2-methyl-3H-1,2,4-triazol-3-one]
ED50 [1, 6]: 25.9 mg/kg | ED50 ([1]; 0.5 h, PO, 30', read-out: ED50 PO): 29.9 mg/kg | ED50 ([1]; 1 h, IP, 60', read-out: ED50 IP): 17.2 mg/kg | ED50 ([1]; IP, 2 hr, read-out: ED50 IP): 39.2 mg/kg | ED50 ([1]; PO, 4 hr, read-out: ED50 PO): 52.3 mg/kg | ED50 ([1]; PO, 24 hr, read-out: ED50 PO): > 128 mg/kg | reduction of damage ([2]; 40 mg/kg i.p.): 66%

Cn1nc(-c2ccc(Cl)cc2)n(C)c1=O [4-ClC6 H4, CH3, CH3, 5-(4-chlorophenyl)-2,4-dihydro-2,4-dimethyl-3H-1,2,4-triazol-3-one]
responders at 64 mg/kg [1]: 80%

CCn1c(-c2ccc(Cl)cc2)n[nH]c1=O [4-ClC6 H4, H, C2 H5, 5-(4-Chlorophenyl)2,4-dihydro-4-ethyl-3H-1,2,4-triazol-3-one]
ED50 [1, 6]: 51 mg/kg

Cn1c(-c2ccc(Cl)cc2)n[nH]c1=O [4-ClC6 H4, H, CH3]
responders at 64 mg/kg [1]: 60%

Cn1c(-c2ccncc2)n[nH]c1=O [4-Pyridyl, H, CH3, 2,4-Dihydro-4-methyl-5-(4-pyridinyl)-3H-1,2,4-triazol-3-one]
responders at 64 mg/kg [1]: 30%

CCn1nc(-c2ccccc2)n(C)c1=O [C6 H5, C2 H5, CH3]
responders at 64 mg/kg [1]: 50%

Cn1nc(-c2ccccc2)n(C)c1=O [C6 H5, CH3, CH3]
responders at 64 mg/kg [1]: 50%

Cn1c(-c2ccccc2)n[nH]c1=O [C6 H5, H, CH3]
responders at 64 mg/kg [1]: 50%

C[C@]12N[C@H](Cc3ccccc31)c1ccccc12 [MK-801, (S)-10,11-dihydro-5-methyl-5H-dibenzo(a,d)cyclohepten-5,10-imine]
antagonism of hippocampal neurodegeneration (in words) [3]: antagonize hippocampal neurodegeneration after carotid artery occlusion in gerbils | reduction of apparent damage ([2]; 5 mg/kg, 30 minutes prior to ligation): 28% | antagonism of quinolinic acid seizures (in words) [4]: antagonize the seizures induced in mice by quinolinic acid

C=C(C)[C@H]1CN[C@H](C(=O)O)[C@H]1CC(=O)O [kainic acid]
neuronal degeneration (in words) [5]: shown to cause neuronal degeneration

O=C(O)c1cccnc1C(=O)O [quinolinic acid, reference compound]
clonic-tonic seizures caused in otherwise untreated mice ([1]; 7.7 μg in 5 μl saline icv): 90-100% | neuronal degeneration (in words) [5]: shown to cause neuronal degeneration

N[C@@H](Cn1oc(=O)[nH]c1=O)C(=O)O [quisqualic acid]
neuronal degeneration (in words) [5]: shown to cause neuronal degeneration
